# How the values were obtained:
# NF-κB pathway = assay: Functional complementation in NEMO-deficient mouse embryo fibroblasts (Igκ-luciferase reporter, TNFα stimulation); type: cell-based; conditions: NEMO-deficient MEF transiently transfected with NEMO variant and Igκ-luciferase reporter; TNFα stimulation for 24 hours; compared with wild-type NEMO
# Excerpt: The capabilities of the wild-type NEMO protein and of the above-defined mutant NEMO proteins in restoring activation of the NF-κB pathway in response to the proinflammatory cytokine TNF-α are compared and illustrated in FIG. 5. For that purpose, NEMO-deficient mouse embryo fibroblasts (MEF) are transiently co-transfected on the one hand with the plasmid coding for the Igκ-luciferase reporter gene and on the other hand with the plasmids coding for the various proteins, and then stimulated with TNFα for 24 hours. The wild-type protein completely restores the NF-κB pathway whereas TNFα-dependent activation of the NF-κB pathway is affected by the mutant proteins in differing degrees.
# NEMO-deficient mouse embryo fibroblasts (MEF) are cultured in cell culture jars and transiently transfected with a mixture containing: 0.2 μg of a plasmid pEF1 coding for β-galactosidase, 0.5 μg of a plasmid containing the Igk-luciferase reporter gene and 2 μg of plasmids expressing the different variants of NEMO. Twenty-four hours after transfection, the cells are activated with TNFα (20 ng/ml) for 24 hours. The cells are then recovered and then lysed in 110 μl of a buffer of 25 mM Tris/Phosphate pH 7.8, 8 mM MgCl2, 1% Triton, 1 mM dithiothreitol, 15% to glycerol to which a cocktail of proteases is added (Roche). […] The activity of the reporter gene is measured.
# [1] = Gel filtration of the wild-type CC2-LZ protein and the mutant F312A; type: physicochemical; conditions: CC2-LZ domain of NEMO; compared with wild-type CC2-LZ protein
# Description: The gel filtration experiments are carried out at 4° C. on a Superdex 75 HR 10/30 column (Amersham Biosciences). The column is equilibrated in a buffer of Tris/HCl 50 mM pH7.5, NaCl 200 mM, DTE 0.2 mM at 4° C. with a flow rate of 0.5 ml/min. A sample of constant volume (200 μl), at a concentration of 0.3 μM, is injected onto the column at a rate of 0.5 ml/min. The proteins are diluted in the equilibration buffer of the column and allowed to stand at 4° C. for 2 hours before injection in order to allow them to equilibrate. In order to detect elution of the proteins, an RF-10 AXL spectrofluorimeter (Shimadzu) is connected on-line to the AKTA apparatus. The intrinsic fluorescence is recorded, measuring the emission of fluorescence of the tyrosine residues at 310 nm after excitation at 280 nm.
inhibition of TNFα-dependent activation of the NF-κB pathway (NF-κB pathway) [%],Substance,effect of the mutation on the stability of the dimer (elution profile on gel filtration) [1]
95,"A323P: human NEMO protein with point mutation Ala323Pro (position 316 in the mouse), cause of incontinentia pigmenti",
78,"F312A: human NEMO / CC2-LZ protein with point mutation Phe312Ala (position 305 in the mouse), within the ubiquitin-binding site",does not affect the stability of the dimer
